The first assay addresses KRas G12D/Q61H double mutant (Homo sapiens (Human), UniProt P01116, G12D/Q61H). Description: Ras GTP binding domain inhibition assay (labeled GTP). Conditions: 20 μM compound; KRas G12D/Q61H double mutant; read-out: % Inhibition at 20 μM of K-Ras mutant and wild-type protein, KRas G12D Q61H. The gist of the method:
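Inhibition of labeled GTP binding is measured on immobilized His-KRas protein in Tris buffer pH 7.5 with 1 mM MgCl2 and 1 mM DTT.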
Sequence of KRas G12D/Q61H double mutant (P01116-2 other isoform, or with tags, fused parts or gaps G12D/Q61H): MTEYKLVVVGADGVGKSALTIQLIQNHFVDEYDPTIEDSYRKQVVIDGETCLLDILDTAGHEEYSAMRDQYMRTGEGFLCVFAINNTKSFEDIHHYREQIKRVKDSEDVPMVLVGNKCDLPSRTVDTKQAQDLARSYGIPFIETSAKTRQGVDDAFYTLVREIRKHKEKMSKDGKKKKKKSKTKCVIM
For `OCCN(Cc1ccc(Cl)c(Cl)c1)c1ncc(Br)cn1`, the inhibition at 20 µM is 1 to 25%. The same measure, in the same setting: the value for `C=CCN(Cc1ccc(Cl)s1)C(=O)COC(=O)c1cc(OC)ccc1O` was 25 to 50%; that for `CCc1nc2ccc(C(=O)Nc3ccccc3C(=O)N3CC(C)OC(C)C3)cc2nc1CC` (stereo not shown) was 25 to 50%; that for `C=CCc1cc(OCC)ccc1OCC(=O)NCc1ccc(OC)cc1` was 25 to 50%. Same read-out and setting: the value for `Cc1ccccc1OCCN(C)c1ccc([N+](=O)[O-])c(OC(F)F)c1` was 25 to 50%; that for `CCC(C)c1ccc(S(=O)(=O)NC(c2ccccc2)c2ccccn2)cc1` (stereo not shown) was 25 to 50%. For `O=C(c1ccc(-c2ccccc2F)o1)N(Cc1ccco1)C1CCCC1`, the inhibition at 20 µM was in the range of 51 to 75%. Same read-out and setting: the figure for `COc1ccc(CCNC(=O)COC(=O)c2c(NC(=O)C(C)(C)C)sc(C)c2C)cc1` is 25 to 50%. Still for that read-out and setting: the figure for `OCC1(Cc2ccccc2)CCCN1c1nc(-c2ccccn2)nc2c1CCC2` (stereo not shown) is 25 to 50%; for `Cn1ccnc1C(NCCOc1ccc2cc(Br)ccc2c1)C1CC1` (stereo not shown) it is 1 to 25%. Consider `COC(=O)c1ccc(CCSc2nnc(COc3cccc(C)c3)o2)cc1`, for which the inhibition at 20 µM is 25 to 50%. Consider `COCCN(Cc1ccccc1)CC(O)COC(c1ccc(OC)cc1)c1ccc(OC)cc1` (stereo not shown), for which the inhibition at 20 µM lay within 1 to 25%. The same measure, in the same setting: the value for `O=C(COc1ccccc1C(=O)c1cnn(-c2ccccc2)c1)NCC1CCCCC1` was 25 to 50%; that for `CCOC(=O)c1c(-c2ccc(C)cc2)csc1NC(=O)CN(C)CC(=O)NC1CCC(O)CC1` (stereo not shown) was 25 to 50%; that for `CCCOc1ccc2ccccc2c1CN(C)Cc1nnc(-c2ccccc2)o1` was 25 to 50%. Take `O=S(=O)(Cc1ccc(OC(F)(F)F)cc1)Nc1cccnc1-n1cccn1`: the inhibition at 20 µM was 25 to 50%.

On to `CC(COc1ccc(Oc2ccccc2)cc1)Oc1ccc(C(F)(F)F)cn1` (stereo not shown), for which the inhibition at 20 µM lay in the range of 51 to 75%.

Take `CCN(CC)S(=O)(=O)c1cccc(C(=O)N2N=C(c3ccccc3)CC2(O)C(F)(F)F)c1` (stereo not shown): the inhibition at 20 µM lay within 25 to 50%. Still for that read-out and setting: the value for `CCc1oc2ccccc2c1CN(C)C(=O)c1cccc(OCc2c(C)noc2C)c1` was 25 to 50%; that for `CC(C)(C)c1noc(COc2ccc(C(=O)c3ccc(F)cc3)cc2)n1` was 25 to 50%; that for `CN(Cc1nnc(-c2ccc(F)cc2)o1)CC12CC3CC(CC(C3)C1)C2` was 25 to 50%. `CCCCN1CC(c2nc3ccccc3n2CCCCOc2c(C)cccc2C)CC1=O` (stereo not shown): the inhibition at 20 µM was in the range of 1 to 25%.

Consider `COc1ccc(C(C)=O)cc1CC(C(=O)c1ccc(C2CCCCC2)cc1)N(C)C` (stereo not shown), for which the inhibition at 20 µM was 25 to 50%. The same measure, in the same setting: the figure for `Cc1cc(C(=O)COC(=O)c2ccccc2[S+](C)[O-])c(C)n1CCC1=CCCCC1` (stereo not shown) is 1 to 25%; for `O=c1[nH]c(NCC(O)c2ccccc2)nc2ccccc12` (stereo not shown) it is 1 to 25%; for `CC(C)(CN1CCN(c2cccc(Cl)c2)CC1)NS(=O)(=O)c1ccccc1` it is 25 to 50%. The same measure, in the same setting: the figure for `CCOc1ccc(CSc2nnc(-c3ccco3)n2-c2ccccc2)cc1OCC` is 25 to 50%.

Regarding `Cc1cc2oc(=O)cc(CN(C)Cc3c(C)nn(Cc4ccccc4Cl)c3C)c2cc1C`, the inhibition at 20 µM was in the range of 25 to 50%.

The same assay, now with this note: 20 μM compound; read-out: % Inhibition at 20 μM KRas G12D Q61H.
For `O=C(c1nccc2ccccc12)N(Cc1nccn1C(F)F)C1CC1`, the inhibition at 20 µM was 1 to 25%.

Consider `Cc1ccc(C(C)C)cc1OS(=O)(=O)N1CCc2ccccc2C1`, for which the inhibition at 20 µM lay in the range of 1 to 25%. Same read-out and setting: the value for `Cc1cccc(-c2nnc(NC(=O)C3Cc4cc(F)ccc4O3)[nH]2)n1` (stereo not shown) was 25 to 50%; that for `O=C(Nc1nnc(-c2ccccn2)s1)c1nccc2ccccc12` was 1 to 25%. The same measure, in the same setting: the figure for `NC(=O)c1cc(N2CCN(c3cccc(C(F)(F)F)c3)CC2)nc2ccccc12` is 25 to 50%; for `O=C(c1csc2c(O)nc(-c3ccccn3)nc12)N1CCc2ccccc2CC1` [drawing 2690] it is 25 to 50%; for `CN(Cc1ccccn1)Cc1nc2ccccc2n1C` it is 25 to 50%. On the same count and under the same terms, the value for `CC(=O)N1CCC(C(=O)Nc2nnc(-c3ccccn3)[nH]2)CC1` was 25 to 50%; that for `Cn1c(CNCc2ccccc2OCc2ccccc2)nc2ccccc21` was 25 to 50%. As to `CS(=O)(=O)CCCNC(=O)c1csc2nc(-c3ccccn3)nc(N3CCOCC3)c12` [drawing 2811], the inhibition at 20 µM was 1 to 25%. On to `O=C(Nc1nnc(-c2ccccn2)[nH]1)C1CCCN(C(=O)c2ccoc2)C1` (stereo not shown), for which the inhibition at 20 µM was in the range of 25 to 50%. For the compound `Cc1noc(C)c1CNc1ccccc1Cc1ccccc1`, the inhibition at 20 µM was in the range of 25 to 50%. Consider `CCOC(=O)C1CCCC1N(Cc1cccc([N+](=O)[O-])c1)C1CC1` (stereo not shown), for which the inhibition at 20 µM was 25 to 50%. On the same count and under the same terms, the figure for `N#Cc1ccc(C2(C(=O)Nc3ccnc(-c4ccccn4)n3)CCCC2)cc1` is 25 to 50%.

Take `CS(=O)(=O)CCCC(=O)N1CCCc2c(O)nc(-c3ccccn3)nc21` [drawing 2650]: the inhibition at 20 µM fell in the range of 51 to 75%.

As for `Nc1nc(-c2ccccn2)nn1C(=O)CN1CCS(=O)(=O)CC1`, the inhibition at 20 µM was 25 to 50%. As to `COc1ccccc1OCc1ccc(C(=O)N2CCCc3c(F)cc(F)cc32)o1`, the inhibition at 20 µM lay within 25 to 50%.

`CN(C)C(=O)CCN1CCOC(c2nc(-c3ccccc3)cs2)C1` (stereo not shown): the inhibition at 20 µM was 1 to 25%. As for `O=C(c1ccc(-c2ccccc2Cl)o1)N(Cc1cccs1)C1CC1`, the inhibition at 20 µM was 25 to 50%.

On to `Cc1c(-c2ccccc2)sc2[nH]c(-c3ccccn3)nc(=O)c12`, for which the inhibition at 20 µM was 25 to 50%.

For `O=S(=O)(Oc1c(Cl)cc(Cl)c2cccnc12)N1CCCCCC1`, the inhibition at 20 µM is 25 to 50%.

Turning to `COc1ccccc1CN(Cc1cccs1)C(=O)c1ccc(C#N)cc1`, the inhibition at 20 µM was 25 to 50%.

Turning to `Fc1ccc(OCCSc2nnc(C3COc4ccccc4O3)o2)cc1` (stereo not shown), the inhibition at 20 µM fell in the range of 1 to 25%. On to `O=C(Nc1nnc(-c2ccccn2)[nH]1)c1ccc(Cn2ccccc2=O)o1`, for which the inhibition at 20 µM was 25 to 50%. For the compound `Oc1nc(-c2ccccn2)nc2[nH]cnc12` [drawing 2696], the inhibition at 20 µM fell in the range of 25 to 50%.

Turning to `Cc1c(C(=O)Nc2nc(-c3ccccn3)cs2)oc2ccccc12`, the inhibition at 20 µM is 25 to 50%.

On to `COc1ccc(-c2nc(C(=O)NCc3ccccn3)cs2)cc1`, for which the inhibition at 20 µM lay within 1 to 25%.

Regarding `Cn1nc(-c2ccncc2)cc1NC(=O)c1cccnc1`, the inhibition at 20 µM lay within 1 to 25%. The same measure, in the same setting: the value for `Cc1cc(O)nc(-c2ccccn2)n1` was 25 to 50%; that for `C=CCn1c(SCc2csc(-c3cccc(OC)c3OC)n2)nc2ccccc21` was 1 to 25%; that for `CCc1ccc(-c2nc(C)c(C(=O)N(Cc3ccco3)C3CCS(=O)(=O)C3)s2)cc1` (stereo not shown) was 25 to 50%. Consider `CCCOc1ccc(C(F)(F)F)cc1NCc1ncc(C)o1`, for which the inhibition at 20 µM fell in the range of 25 to 50%. As for `Cc1ccc(C)c(OCc2nnc(SCC(C)C(=O)c3ccc(F)c(F)c3)o2)c1` (stereo not shown), the inhibition at 20 µM was in the range of 25 to 50%. Still for that read-out and setting: the figure for `O=C(NCCc1cccs1)c1cc(S(=O)(=O)N2CCCCC2)ccc1N1CCOCC1` is 1 to 25%; for `COCCOCCN(C)C(=O)c1csc2c(O)nc(N)nc12` it is 1 to 25%; for `FC(F)(F)c1ccc(N2CCCC2)c(NCc2nc(-c3ccco3)no2)c1` it is 25 to 50%. As to `CCOCCC1CCN(C(=O)c2csc3c(O)nc(-c4ccccn4)nc23)CC1` [drawing 2676], the inhibition at 20 µM fell in the range of 51 to 75%. The same measure, in the same setting: the value for `OC1CCC(Nc2nc(-c3ccccn3)nc3c2CCC3)CC1` (stereo not shown) was 25 to 50%. Still for that read-out and setting: the value for `CC(C)N1C(=O)CC(Nc2cc(C(F)(F)F)nc(-c3ccccn3)n2)C1=O` (stereo not shown) was 1 to 25%. Still for that read-out and setting: the figure for `COc1ccc(Br)cc1CN(C)C(C)c1nnc(-c2ccc(C)cc2)o1` (stereo not shown) is 25 to 50%; for `COc1ccccc1N1CCN(C(=O)c2csc3c(O)nc(-c4ccccn4)nc23)CC1` [drawing 2712] it is 25 to 50%.

Still in this assay, the particulars now being: 20 μM; read-out: KRas G12D Q61H % Inh.
`N#Cc1ccccc1OCC(=O)Nc1nnc(-c2ccccn2)[nH]1` [drawing 2488]: the inhibition at 20 µM is 51 to 75%. On the same count and under the same terms, the figure for `O=C(Nc1nc(-c2ccccn2)cs1)c1ccc2nccnc2c1` [drawing 2570] is 51 to 75%; for `N#Cc1cccc(OCC(=O)Nc2nnc(-c3ccccn3)[nH]2)c1` [drawing 2523] it is 51 to 75%; for `O=C(Cc1ccc2c(c1)OCCO2)Nc1nnc(-c2ccccn2)[nH]1` [drawing 2551] it is 51 to 75%. As to `O=C(Nc1nnc(-c2ccccn2)[nH]1)c1ccc(Oc2cccnc2)cc1` [drawing 2550], the inhibition at 20 µM is 51 to 75%.

For `Oc1ccc(C2(c3cccc(Cl)c3)CCCC2)cc1` [drawing 2620], the inhibition at 20 µM was 25 to 50%. In the case of `O=C(Nc1nnc(-c2ccccn2)[nH]1)C1=NOC(c2ccccc2)C1` (stereo not shown) [drawing 2544], the inhibition at 20 µM lay in the range of 51 to 75%.

Regarding `CN(CC(=O)Nc1nnc(-c2ccccn2)[nH]1)Cc1ccccc1` [drawing 2537], the inhibition at 20 µM fell in the range of 51 to 75%. Consider `O=S(=O)(Oc1cc(C(F)(F)F)cc(C(F)(F)F)c1)N1CCc2ccccc2C1` [drawing 2627], for which the inhibition at 20 µM lay in the range of 51 to 75%.

With `N#Cc1ccc(OCC(=O)Nc2nnc(-c3ccccn3)[nH]2)cc1`, the inhibition at 20 µM was 51 to 75%. The same measure, in the same setting: the figure for `O=C(Nc1nnc(-c2ccccn2)[nH]1)c1ccc(OCC2CC2)cc1` [drawing 2522] is 51 to 75%; for `CCn1nnc2cc(C(=O)Nc3nnc(-c4ccccn4)[nH]3)ccc21` [drawing 2507] it is 51 to 75%; for `COc1ccc(NC(=O)CCc2c(C)nc(-c3ccccn3)nc2O)cn1` [drawing 2594] it is 51 to 75%. With `O=C(Nc1nnc(-c2ccccn2)[nH]1)C1CC(=O)N(CCc2ccccc2)C1` (stereo not shown) [drawing 2494], the inhibition at 20 µM was 51 to 75%. The same measure, in the same setting: the value for `Cc1cccc(C(=O)Nc2nnc(-c3ccccn3)[nH]2)n1` [drawing 2524] was 51 to 75%; that for `COc1ccc(COCC(=O)Nc2nnc(-c3ccccn3)[nH]2)cc1` [drawing 2563] was 51 to 75%.
